Experimental data from paper PMC5218480 (PLoS ONE, 2017).

Tested on: MV-4-11 cells
Test: Gene expression microarray analysis (Affymetrix PrimeView) and GSEA
Format: cell-based, human
Set-up: RFU PODN (11730768_x_at) / Fold change /veh PODN (11730768_x_at) / RFU LINC00158 (11744669_a_at) / Fold change /veh LINC00158 (11744669_a_at) / RFU DUSP10 (11751237_a_at) / Fold change /veh DUSP10 (11751237_a_at) / RFU ID3 (11757404_x_at) / Fold change /veh ID3 (11757404_x_at) / RFU PLEKHG5 (11737974_s_at) / Fold change /veh PLEKHG5 (11737974_s_at) / RFU LRRC4B (11730491_at) / Fold change /veh LRRC4B (11730491_at) / RFU GIMAP4 (11747438_a_at) / Fold change /veh GIMAP4 (11747438_a_at) / RFU KRT8 (11758183_x_at) / Fold change /veh KRT8 (11758183_x_at) / RFU CNN1 (11734310_a_at) / Fold change /veh CNN1 (11734310_a_at) / RFU VPS37D (11726825_at) / Fold change /veh VPS37D (11726825_at) / RFU C10orf10 (11716522_x_at) / Fold change /veh C10orf10 (11716522_x_at) / RFU KIR2DL2 /// KIR2DL4 /// KIR2DL5A /// KIR2DL5B /// KIR2DS1 /// KIR2DS2 /// KIR2DS3 /// KIR2DS4 /// KIR3DL3 /// KIR3DL3 /// KIR3DS1 (11738374_at) / Fold change /veh KIR2DL2 /// KIR2DL4 /// KIR2DL5A /// KIR2DL5B /// KIR2DS1 /// KIR2DS2 /// KIR2DS3 /// KIR2DS4 /// KIR3DL3 /// KIR3DL3 /// KIR3DS1 (11738374_at) / RFU C1QL1 (11718748_at) / Fold change /veh C1QL1 (11718748_at) / RFU TMPRSS4 (11747572_a_at) / Fold change /veh TMPRSS4 (11747572_a_at) / RFU HAMP (11756126_x_at) / Fold change /veh HAMP (11756126_x_at) / RFU RNFT2 (11725882_a_at) / Fold change /veh RNFT2 (11725882_a_at) / RFU NR4A2 (11747474_a_at) / Fold change /veh NR4A2 (11747474_a_at) / RFU ABCC12 (11746883_a_at) / Fold change /veh ABCC12 (11746883_a_at) / RFU TMEM136 (11760407_x_at) / Fold change /veh TMEM136 (11760407_x_at) / RFU CLDN22 /// WWC2 (11732394_at) / Fold change /veh CLDN22 /// WWC2 (11732394_at) / RFU HLA-DPB1 (11760878_x_at) / Fold change /veh HLA-DPB1 (11760878_x_at) / RFU SPINT1 (11716480_a_at) / Fold change /veh SPINT1 (11716480_a_at) / RFU GAP43 (11754022_s_at) / Fold change /veh GAP43 (11754022_s_at) / RFU A4GNT (11735810_at) / Fold change /veh A4GNT (11735810_at) / RFU PRB3 (11715151_x_at) / Fold change /veh PRB3 (11715151_x_at) / RFU TUBB4B (11761932_at) / Fold change /veh TUBB4B (11761932_at) / RFU CAPN14 (11732068_a_at) / Fold change /veh CAPN14 (11732068_a_at) / RFU TMCC2 (11721928_a_at) / Fold change /veh TMCC2 (11721928_a_at) / RFU IRGQ (11745062_a_at) / Fold change /veh IRGQ (11745062_a_at) / RFU FAM174B (11720279_a_at) / Fold change /veh FAM174B (11720279_a_at) / RFU TMPRSS4 (11748680_a_at) / Fold change /veh TMPRSS4 (11748680_a_at) / RFU FAM212B (11763350_a_at) / Fold change /veh FAM212B (11763350_a_at) / RFU PLEKHG5 (11743358_a_at) / Fold change /veh PLEKHG5 (11743358_a_at) / RFU ZSCAN30 (11745921_a_at) / Fold change /veh ZSCAN30 (11745921_a_at) / RFU CMKLR1 (11741424_a_at) / Fold change /veh CMKLR1 (11741424_a_at) / RFU LOC101060620 /// MAPK8IP1 (11723275_at) / Fold change /veh LOC101060620 /// MAPK8IP1 (11723275_at) / RFU SPTSSB (11747773_x_at) / Fold change /veh SPTSSB (11747773_x_at) / RFU PRSS12 (11739890_at) / Fold change /veh PRSS12 (11739890_at) / RFU BIN1 (11741810_x_at) / Fold change /veh BIN1 (11741810_x_at) / RFU WNT11 (11732464_a_at) / Fold change /veh WNT11 (11732464_a_at) / RFU C10orf10 (11716521_a_at) / Fold change /veh C10orf10 (11716521_a_at) / RFU C5orf56 (11738089_at) / Fold change /veh C5orf56 (11738089_at) / RFU CYB561 (11721691_x_at) / Fold change /veh CYB561 (11721691_x_at) / RFU ANKRD19P (11752326_a_at) / Fold change /veh ANKRD19P (11752326_a_at) / RFU OR2T12 /// OR2T33 /// OR2T8 (11738714_s_at) / Fold change /veh OR2T12 /// OR2T33 /// OR2T8 (11738714_s_at) / RFU VCAN (11748164_a_at) / Fold change /veh VCAN (11748164_a_at) / RFU JSRP1 (11732532_at) / Fold change /veh JSRP1 (11732532_at) / RFU KRTAP10-11 (11738290_x_at) / Fold change /veh KRTAP10-11 (11738290_x_at) / RFU MYO3A (11730013_a_at) / Fold change /veh MYO3A (11730013_a_at) / RFU EBF3 (11725865_a_at) / Fold change /veh EBF3 (11725865_a_at) / RFU CAMK2N1 (11719241_x_at) / Fold change /veh CAMK2N1 (11719241_x_at) / RFU C5orf56 (11738088_a_at) / Fold change /veh C5orf56 (11738088_a_at) / RFU OLFML3 (11715873_a_at) / Fold change /veh OLFML3 (11715873_a_at) / RFU LOC100653217 /// NTM (11731650_a_at) / Fold change /veh LOC100653217 /// NTM (11731650_a_at) / RFU MAPK11 (11762145_a_at) / Fold change /veh MAPK11 (11762145_a_at) / RFU FIZ1 (11724087_x_at) / Fold change /veh FIZ1 (11724087_x_at) / RFU OASL (11726364_x_at) / Fold change /veh OASL (11726364_x_at) / RFU SOX15 (11748057_x_at) / Fold change /veh SOX15 (11748057_x_at) / RFU CD79A (11719716_a_at) / Fold change /veh CD79A (11719716_a_at) / RFU HIST1H1D (11736915_at) / Fold change /veh HIST1H1D (11736915_at) / RFU CASKIN2 (11723855_a_at) / Fold change /veh CASKIN2 (11723855_a_at) / RFU LOC730098 (11760151_x_at) / Fold change /veh LOC730098 (11760151_x_at) / RFU OR4N2 (11742367_at) / Fold change /veh OR4N2 (11742367_at) / RFU PRRT2 (11749266_a_at) / Fold change /veh PRRT2 (11749266_a_at) / RFU SNX32 (11753110_a_at) / Fold change /veh SNX32 (11753110_a_at) / RFU CDHR5 (11726645_a_at) / Fold change /veh CDHR5 (11726645_a_at) / RFU RCAN1 (11760418_a_at) / Fold change /veh RCAN1 (11760418_a_at) / RFU FAM167A (11723789_a_at) / Fold change /veh FAM167A (11723789_a_at) / RFU FAM26E (11764081_at) / Fold change /veh FAM26E (11764081_at) / RFU ISYNA1 (11749810_s_at) / Fold change /veh ISYNA1 (11749810_s_at) / RFU ACY1 (11761880_at) / Fold change /veh ACY1 (11761880_at) / RFU 11764098_at / Fold change /veh 11764098_at / RFU SAMD14 (11745864_x_at) / Fold change /veh SAMD14 (11745864_x_at) / RFU NPB (11741838_a_at) / Fold change /veh NPB (11741838_a_at) / RFU TMPRSS6 (11731388_a_at) / Fold change /veh TMPRSS6 (11731388_a_at) / RFU KRTAP10-2 (11738614_at) / Fold change /veh KRTAP10-2 (11738614_at) / RFU ARHGAP8 /// PRR5-ARHGAP8 (11727945_x_at) / Fold change /veh ARHGAP8 /// PRR5-ARHGAP8 (11727945_x_at) / RFU KRTAP5-7 /// NADSYN1 (11734609_at) / Fold change /veh KRTAP5-7 /// NADSYN1 (11734609_at) / RFU RASL12 (11751679_a_at) / Fold change /veh RASL12 (11751679_a_at) / RFU CDKN2B (11736163_a_at) / Fold change /veh CDKN2B (11736163_a_at) / RFU PRF1 (11729649_at) / Fold change /veh PRF1 (11729649_at) / RFU, ZNF638 /// ZNF638-IT1 / Fold change vs veh, ZNF638 /// ZNF638-IT1 / RFU, PANK3 / Fold change vs veh, PANK3 / RFU, SH3YL1 / Fold change vs veh, SH3YL1 / RFU, ZEB2 / Fold change vs veh, ZEB2 / RFU, NRIP1 / Fold change vs veh, NRIP1 / RFU, PTTG1IP / Fold change vs veh, PTTG1IP / RFU, CAPN2 / Fold change vs veh, CAPN2 / RFU, MED14 / Fold change vs veh, MED14 / RFU, SNORA58 / Fold change vs veh, SNORA58 / RFU, C1orf63 / Fold change vs veh, C1orf63 / RFU, LRRFIP1 / Fold change vs veh, LRRFIP1 / RFU, NDUFAF7 / Fold change vs veh, NDUFAF7 / RFU, SLC12A2 / Fold change vs veh, SLC12A2 / RFU, IBTK / Fold change vs veh, IBTK / RFU, ESF1 / Fold change vs veh, ESF1 / Fold change vs veh, TMEM50B / RFU, TAOK1 / Fold change vs veh, TAOK1 / RFU, ACBD3 / Fold change vs veh, ACBD3 / RFU, TMA16 / Fold change vs veh, TMA16 / RFU, RWDD3 / Fold change vs veh, RWDD3 / RFU, BCAT1 / Fold change vs veh, BCAT1 / RFU, EDEM3 / Fold change vs veh, EDEM3 / RFU, TMEM33 / Fold change vs veh, TMEM33 / RFU, WDR75 / Fold change vs veh, WDR75 / RFU, AHCTF1 / Fold change vs veh, AHCTF1 / RFU, TFRC / Fold change vs veh, TFRC / RFU, ZDHHC17 / Fold change vs veh, ZDHHC17 / RFU, NOM1 / Fold change vs veh, NOM1 / RFU, ARL8B / Fold change vs veh, ARL8B / RFU, ZBTB11 / Fold change vs veh, ZBTB11 / RFU, TAMM41 / Fold change vs veh, TAMM41 / RFU, KIAA1704 /// LOC100996395 / Fold change vs veh, KIAA1704 /// LOC100996395 / RFU, ING1 / Fold change vs veh, ING1 / RFU, TRMT61B / Fold change vs veh, TRMT61B / RFU, FUBP3 / Fold change vs veh, FUBP3 / RFU, TP53 / Fold change vs veh, TP53 / RFU, TNKS2 / Fold change vs veh, TNKS2 / RFU, ZFP14 / Fold change vs veh, ZFP14 / RFU, ACTR2 / Fold change vs veh, ACTR2 / RFU, PPP3R1 / Fold change vs veh, PPP3R1 / RFU, PIK3R1 / Fold change vs veh, PIK3R1 / RFU, HNRNPA1 / Fold change vs veh, HNRNPA1 / RFU, RNF170 / Fold change vs veh, RNF170 / RFU, ZNF28 / Fold change vs veh, ZNF28 / RFU, RNGTT / Fold change vs veh, RNGTT / RFU, OGT / Fold change vs veh, OGT / RFU, BRD1 / Fold change vs veh, BRD1 / RFU, MARS / Fold change vs veh, MARS / RFU, ZNF655 / Fold change vs veh, ZNF655 / RFU, FAHD1 / Fold change vs veh, FAHD1 / RFU, BDP1 / Fold change vs veh, BDP1 / RFU, LRRCC1 / Fold change vs veh, LRRCC1 / RFU, ARID1A / Fold change vs veh, ARID1A / RFU, ZNF146 / Fold change vs veh, ZNF146 / RFU, ZNF330 / Fold change vs veh, ZNF330 / RFU, GPN3 / Fold change vs veh, GPN3 / RFU, C9orf123 / Fold change vs veh, C9orf123 / RFU, N4BP2L2 / Fold change vs veh, N4BP2L2 / RFU, ARFIP1 / Fold change vs veh, ARFIP1 / RFU, FAM179B / Fold change vs veh, FAM179B / RFU, BCL10 / Fold change vs veh, BCL10 / RFU, UHRF1BP1L / Fold change vs veh, UHRF1BP1L / RFU, BET1 / Fold change vs veh, BET1 / RFU, CNOT2 / Fold change vs veh, CNOT2 / RFU, ZNF268 / Fold change vs veh, ZNF268 / Fold change vs veh, ZNF507 / RFU, DGCR2 / Fold change vs veh, DGCR2 / RFU, WDSUB1 / Fold change vs veh, WDSUB1 / Fold change vs veh, HSP90B1 /// MIR3652 / RFU, ADSS / Fold change vs veh, ADSS / RFU, GK / Fold change vs veh, GK / RFU, ZNF148 / Fold change vs veh, ZNF148 / RFU, TAF9 / Fold change vs veh, TAF9 / RFU, SLC1A5 / Fold change vs veh, SLC1A5 / RFU, SLMO2 / Fold change vs veh, SLMO2 / RFU, ABCC4 / Fold change vs veh, ABCC4 / RFU, LOC101060439 /// RAP1B / Fold change vs veh, LOC101060439 /// RAP1B / RFU, RFX7 / Fold change vs veh, RFX7 / RFU, GTPBP10 / Fold change vs veh, GTPBP10 / RFU, CNEP1R1 / Fold change vs veh, CNEP1R1 / RFU, BIVM-ERCC5 /// ERCC5 / Fold change vs veh, BIVM-ERCC5 /// ERCC5 / RFU, ILF3 / Fold change vs veh, ILF3 / RFU 11762660_at / Fold change /veh 11762660_at / RFU VCAN (11757783_s_at) / Fold change /veh VCAN (11757783_s_at) / RFU DDX43 (11728927_at) / Fold change /veh DDX43 (11728927_at) / RFU KRT8 (11758188_x_at) / Fold change /veh KRT8 (11758188_x_at) / RFU NKD1 (11759106_at) / Fold change /veh NKD1 (11759106_at) / RFU SRD5A1 (11742802_a_at) / Fold change /veh SRD5A1 (11742802_a_at) / RFU TPSAB1 /// TPSB2 (11721975_s_at) / Fold change /veh TPSAB1 /// TPSB2 (11721975_s_at) / RFU GSTM3 (11746129_a_at) / Fold change /veh GSTM3 (11746129_a_at) / RFU IL23R (11737362_x_at) / Fold change /veh IL23R (11737362_x_at) / RFU TMEM51 (11727254_a_at) / Fold change /veh TMEM51 (11727254_a_at) / RFU PIWIL2 (11732686_x_at) / Fold change /veh PIWIL2 (11732686_x_at) / RFU ORM1 (11744905_x_at) / Fold change /veh ORM1 (11744905_x_at) / RFU CCDC152 (11743942_at) / Fold change /veh CCDC152 (11743942_at) / RFU ECM1 (11717891_a_at) / Fold change /veh ECM1 (11717891_a_at) / RFU IL23R (11748794_a_at) / Fold change /veh IL23R (11748794_a_at) / RFU TNFAIP8L3 (11732012_x_at) / Fold change /veh TNFAIP8L3 (11732012_x_at) / RFU MBOAT4 (11741988_at) / Fold change /veh MBOAT4 (11741988_at) / RFU 11764193_at / Fold change /veh 11764193_at / RFU TMEM53 (11763286_at) / Fold change /veh TMEM53 (11763286_at) / RFU MAGEB2 (11727129_at) / Fold change /veh MAGEB2 (11727129_at) / RFU TMEM200A (11744735_a_at) / Fold change /veh TMEM200A (11744735_a_at) / RFU CCDC152 (11751479_a_at) / Fold change /veh CCDC152 (11751479_a_at) / RFU FAM211A (11726209_a_at) / Fold change /veh FAM211A (11726209_a_at) / RFU RGS16 (11746705_a_at) / Fold change /veh RGS16 (11746705_a_at) / RFU VCAN (11755009_s_at) / Fold change /veh VCAN (11755009_s_at) / RFU RHOB (11743442_s_at) / Fold change /veh RHOB (11743442_s_at) / RFU RGS16 (11720943_a_at) / Fold change /veh RGS16 (11720943_a_at) / RFU RGS16 (11720944_at) / Fold change /veh RGS16 (11720944_at) / RFU, VPS4B / Fold change vs veh, VPS4B / RFU, CREB1 / Fold change vs veh, CREB1 / RFU, DNAJC13 / Fold change vs veh, DNAJC13 / RFU, GNAQ / Fold change vs veh, GNAQ / RFU, CDK5R1 / Fold change vs veh, CDK5R1 / RFU, ZRANB3 / Fold change vs veh, ZRANB3 / RFU, CUL4A / Fold change vs veh, CUL4A / RFU, CCNY / Fold change vs veh, CCNY / RFU, UFL1 / Fold change vs veh, UFL1 / RFU, COG3 / Fold change vs veh, COG3 / RFU, DIAPH2 / Fold change vs veh, DIAPH2 / RFU, SKA2 / Fold change vs veh, SKA2 / RFU, AFF3 / Fold change vs veh, AFF3 / RFU, LMF1 / Fold change vs veh, LMF1 / RFU, IPO11 / Fold change vs veh, IPO11 / RFU, DFFB / Fold change vs veh, DFFB / RFU, FOXP1 / Fold change vs veh, FOXP1 / RFU, CARD8 / Fold change vs veh, CARD8 / RFU, STRN3 / Fold change vs veh, STRN3 / RFU, ADK / Fold change vs veh, ADK / RFU, RASSF2 / Fold change vs veh, RASSF2 / RFU, WIPF1 / Fold change vs veh, WIPF1 / RFU, LARP1B / Fold change vs veh, LARP1B / RFU, RASA1 / Fold change vs veh, RASA1 / RFU, RB1 / Fold change vs veh, RB1 / RFU, PPFIA1 / Fold change vs veh, PPFIA1 / RFU, MAT2A / Fold change vs veh, MAT2A / RFU, CCT5 / Fold change vs veh, CCT5 / RFU, WDR92 / Fold change vs veh, WDR92 / RFU, CUX1 / Fold change vs veh, CUX1 / RFU, TTC7A / Fold change vs veh, TTC7A / RFU, TMEM135 / Fold change vs veh, TMEM135 / RFU, DEPTOR / Fold change vs veh, DEPTOR / RFU, CPM / Fold change vs veh, CPM / RFU, DNAJB6 / Fold change vs veh, DNAJB6 / RFU, CACNA2D3 / Fold change vs veh, CACNA2D3 / RFU, DTX4 / Fold change vs veh, DTX4 / RFU, TFCP2 / Fold change vs veh, TFCP2 / RFU, GMCL1 /// GMCL1P1 / Fold change vs veh, GMCL1 /// GMCL1P1 / RFU, AEBP2 / Fold change vs veh, AEBP2 / RFU, SNHG1 /// SNORD22 /// SNORD25 /// SNORD26 /// SNORD27 /// SNORD28 /// SNORD29 /// SNORD31 / Fold change vs veh, SNHG1 /// SNORD22 /// SNORD25 /// SNORD26 /// SNORD27 /// SNORD28 /// SNORD29 /// SNORD31 / Fold change (Aza/veh), C12orf56 (ProbeSet 11735607_a_at) / Fold change (ACY-1035/veh), C12orf56 (ProbeSet 11735607_a_at) / Fold change (Aza/veh), FGFR1OP (ProbeSet 11751329_s_at) / Fold change (ACY-1035/veh), FGFR1OP (ProbeSet 11751329_s_at) / Fold change (Aza/veh), VPS36 (ProbeSet 11739960_a_at) / Fold change (ACY-1035/veh), VPS36 (ProbeSet 11739960_a_at) / RFU SYPL1 (11715823_x_at) / Fold change /veh SYPL1 (11715823_x_at) / RFU IGFBP7 (11715501_s_at) / Fold change /veh IGFBP7 (11715501_s_at) / RFU REEP3 (11722064_at) / Fold change /veh REEP3 (11722064_at) / RFU IGLL1 (11728026_x_at) / Fold change /veh IGLL1 (11728026_x_at): dose or concentration left out as unconfirmed
Conditions: ProbeSet 11754607_s_at; LIST B

Nc1ccc(-c2cccs2)cc1NC(=O)c1ccc2c(c1)cc(C1CC1)n2CCN1CCOCC1 [ACY-1035]
Fold change vs veh, HSP90B1 /// MIR3652: 0.87
